Assay results published in patent publication US8287923B2, “Compositions and methods for treating immune disorders” (priority 2005, dated 2012).

Legend:
Type in all cases: cell-based, human
[1] = test system: OSC2 cells; assay: Semi-quantitative RT-PCR of SS-A/Ro and SS-B/La mRNA; conditions: 100 uM EGCG
Experimental: Total RNA was extracted using an RNeasy total RNA isolation system (QIAGEN, Valentia, Calif.) RT reactions and PCR reactions were performed according to the manufacturer's protocol (Super Array Bioscience Corp). For amplification, the following pair of primers was used,
Amplification was started by heating for 1.5 min at 94° C., followed by 30 cycles for 52 kD SSA/Ro. 25 cycles for GAPDH and 25 cycles for SSB/La, each cycle consisting of 15
second at 94° C., 30 seconds at 57.3° C., and 1 min at 72° C. A final extension was performed at 72° C. for 5 min prior to gel analysis.
To further test this possibility, three cell types, NHEK, NS-SV-AC (an SV40 immortalized cell line derived from human submandibular acinar cells) and OC2 cells (derived from an oral squamous cell carcinoma) were treated with 100 uM EGCG for different times. A semi-quantitative estimate of SS-A/Ro and SS-B/La mRNA levels was then obtained by RT-PCR during the exponential period of amplification. GAPDH was used as a housekeeping gene control.

[2] = test system: NS-SV-AC cells; assay: Western blot of p38, ERK and JNK phosphorylation
Experimental: Western blot. Cells were washed in ice-cold PBS and lysed for 20 min in RIPA buffer containing 1% (v/v) Nonidet P-40, 0.5% (w/v) sodium deoxycholate, 0.1% (w/v) SDS, 10 μg/ml leupeptin, 3 μg/ml aprotinin and 100 mM phenylmethylsulfonyl fluoride (PMSF). Samples of lysates containing the same amount of protein were loaded in each lane (we used 5-30μg, depending on the antibody used) and electrophoretically separated on a 12% SDS polyacrylamide gel. Following electrophoresis, proteins were transferred to a PVDF membrane (Immobilon™-P, Millipore Corporation, Bedford, Mass.). The membrane was blocked for 1 h with 5% (w/v) non-fat dry milk powder in PBST (0.1% Tween-20 in PBS) and then incubated for 1 h with primary antibody diluted in PBST/milk (Antibodies and dilutions: rabbit polyclonal JNK1/2, […], mouse monoclonal pJNK1/2, 1:1000, rabbit polyclonal ERK, 1:2000, rabbit polyclonal p38, 1:1000, rabbit polyclonal pp 38, 1:1000 and goat polyclonal actin, 1:2000). The membrane was washed three times with PBST and incubated with peroxidase-conjugated, affinity-purified anti-rabbit IgG (Santa Cruz Biotechnology, Inc.) for 1 h. Following extensive washing, the reaction was developed by enhanced chemiluminescent staining using ECL Western blotting detection reagents (Amersham Pharmacia Biotech Inc., Piscataway, N.J.).
p38 activation is one mechanism by which GTPs attenuates mechanisms of SS pathogenesis. […] Therefore, of these three signaling pathways, EGCG activates primarily p38 in NS-SV-AC cells.

[3] = test system: NHEK; assay: Affymetrix gene array analysis, inflammatory gene expression; conditions: 100 μM, vs time 0
Experimental: The gene array experiment was performed at the Core Facility of Genomics of the Medical College of Georgia, according to the instructions of the manufacturer (Affymetrix, Santa Clara, Calif.). Briefly, NHEK and OSC2 cells treated with 100 μM EGCG for different time period were extracted for total RNA, the RNA was processed for probes and hybridized with a cDNA microarray (HuG133A, Affymetrix) which represents 22,283 human series. DNA chips were read with a Hewlett-Packard GeneArray Scanner at a resolution of […] and were analyzed with the GeneSpring software (Silicon Genetics, Redwood City, Calif.). Details of this analysis will be published elsewhere (Hsu et al., manuscript in preparation).

O=C(O[C@@H]1Cc2c(O)cc(O)cc2O[C@@H]1c1cc(O)c(O)c(O)c1)c1cc(O)c(O)c(O)c1 [EGCG, (−)-epigallocatechin-3-gallate]
SS-A/Ro mRNA level [1]: showed little change | reduction in SS-B/La mRNA [1]: less pronounced and did not occur until 24 hrs of exposure | pERK [2]: only a slight increase | phosphorylation of JNK [2]: not altered | phosphorylation of p38 [2]: rapid and sustained phosphorylation | time to p38 phosphorylation [2]: ≤ 30 min | BMP2 (205290_s_at) expression ([3]; 0.5 h): 0.32 fold | IFNGR1 (202727_s_at) expression ([3]; 0.5 h): 0.79 fold | IL1A (210118_s_at) expression ([3]; 0.5 h): 0.66 fold | IL1B (39402_at) expression ([3]; 0.5 h): 0.29 fold | IL1B (205067_at) expression ([3]; 0.5 h): 0.29 fold | IL6R (205945_at) expression ([3]; 0.5 h): 0.48 fold | IL6ST (21100_s_at) expression ([3]; 0.5 h): 0.34 fold | IL8 (202859_x_at) expression ([3]; 0.5 h): 6.02 fold | IL10RB (209575_at) expression ([3]; 0.5 h): 0.43 fold | IL13RA2 (206172_at) expression ([3]; 0.5 h): 0.33 fold | IL18 (206295_at) expression ([3]; 0.5 h): 0.33 fold | TNFSF15 (221085_at) expression ([3]; 0.5 h): 0.52 fold | p38 (21156_x_at) expression ([3]; 0.5 h): 2.32 fold | p38 (202530_at) expression ([3]; 0.5 h): 2.51 fold | BMP2 (205290_s_at) expression ([3]; 2 h): 0.96 fold | IFNGR1 (202727_s_at) expression ([3]; 2 h): 0.91 fold | IL1A (210118_s_at) expression ([3]; 2 h): 0.42 fold | IL1B (39402_at) expression ([3]; 2 h): 0.48 fold | IL1B (205067_at) expression ([3]; 2 h): 0.58 fold | IL6R (205945_at) expression ([3]; 2 h): 0.69 fold | IL6ST (21100_s_at) expression ([3]; 2 h): 0.28 fold | IL8 (202859_x_at) expression ([3]; 2 h): 9.55 fold | IL10RB (209575_at) expression ([3]; 2 h): 0.63 fold | IL13RA2 (206172_at) expression ([3]; 2 h): 0.74 fold | IL18 (206295_at) expression ([3]; 2 h): 0.65 fold | TNFSF15 (221085_at) expression ([3]; 2 h): 1.56 fold | p38 (21156_x_at) expression ([3]; 2 h): 1.46 fold | p38 (202530_at) expression ([3]; 2 h): 1.09 fold | BMP2 (205290_s_at) expression ([3]; 6 h): 0.72 fold | IFNGR1 (202727_s_at) expression ([3]; 6 h): 0.45 fold | IL1A (210118_s_at) expression ([3]; 6 h): 0.54 fold | IL1B (39402_at) expression ([3]; 6 h): 0.40 fold | IL1B (205067_at) expression ([3]; 6 h): 0.49 fold | IL6R (205945_at) expression ([3]; 6 h): 0.31 fold | IL6ST (21100_s_at) expression ([3]; 6 h): 0.99 fold | IL8 (202859_x_at) expression ([3]; 6 h): 9.99 fold | IL10RB (209575_at) expression ([3]; 6 h): 0.76 fold | IL13RA2 (206172_at) expression ([3]; 6 h): 0.81 fold | IL18 (206295_at) expression ([3]; 6 h): 0.70 fold | TNFSF15 (221085_at) expression ([3]; 6 h): 0.67 fold | p38 (21156_x_at) expression ([3]; 6 h): 1.62 fold | p38 (202530_at) expression ([3]; 6 h): 0.63 fold | BMP2 (205290_s_at) expression ([3]; 24 h): 0.44 fold | IFNGR1 (202727_s_at) expression ([3]; 24 h): 0.92 fold | IL1A (210118_s_at) expression ([3]; 24 h): 0.27 fold | IL1B (39402_at) expression ([3]; 24 h): 0.27 fold | IL1B (205067_at) expression ([3]; 24 h): 0.26 fold | IL6R (205945_at) expression ([3]; 24 h): 0.69 fold | IL6ST (21100_s_at) expression ([3]; 24 h): 0.61 fold | IL8 (202859_x_at) expression ([3]; 24 h): 9.93 fold | IL10RB (209575_at) expression ([3]; 24 h): 0.38 fold | IL13RA2 (206172_at) expression ([3]; 24 h): 0.55 fold | IL18 (206295_at) expression ([3]; 24 h): 0.65 fold | TNFSF15 (221085_at) expression ([3]; 24 h): 0.63 fold | p38 (21156_x_at) expression ([3]; 24 h): 2.51 fold | p38 (202530_at) expression ([3]; 24 h): 1.17 fold
